# Laboratory results from ChEMBL document CHEMBL5137068, “Discovery of Hexahydrofuro[3,2-b]furans as New Kinase-Selective and Orally Bioavailable JAK3 Inhibitors for the Treatment of Leukemia Harboring a JAK3 Activating Mutant” (J Med Chem, 2022).
# The source made the active and inactive calls. The calls are words filed in the database; no cut-off is given here.
# Tests used:
# U-937 [1] = assay: Induction of cell cycle arrest in human U-937 cells assessed as accumulation at G2/M phase at 3.7 nM measured after 24 hrs by propidium iodide staining based flow cytometric analysis (reference value: 21.41%); format: functional
# [2] = AUC(0 to infinity) in 12 hr fasted SPF Sprague-Dawley rat at 5 mg/kg, iv upon 2 hrs fasting post-administration measured upto 24 hrs; format: ADME, organism-based; set-up: dose 5 mg/kg, time < 24 hrs, route iv; conditions: in vivo
# [3] = target: T1, Tyrosine-protein kinase JAK3 (Homo sapiens, UniProt P52333)
# T1 sequence (P52333 whole entry): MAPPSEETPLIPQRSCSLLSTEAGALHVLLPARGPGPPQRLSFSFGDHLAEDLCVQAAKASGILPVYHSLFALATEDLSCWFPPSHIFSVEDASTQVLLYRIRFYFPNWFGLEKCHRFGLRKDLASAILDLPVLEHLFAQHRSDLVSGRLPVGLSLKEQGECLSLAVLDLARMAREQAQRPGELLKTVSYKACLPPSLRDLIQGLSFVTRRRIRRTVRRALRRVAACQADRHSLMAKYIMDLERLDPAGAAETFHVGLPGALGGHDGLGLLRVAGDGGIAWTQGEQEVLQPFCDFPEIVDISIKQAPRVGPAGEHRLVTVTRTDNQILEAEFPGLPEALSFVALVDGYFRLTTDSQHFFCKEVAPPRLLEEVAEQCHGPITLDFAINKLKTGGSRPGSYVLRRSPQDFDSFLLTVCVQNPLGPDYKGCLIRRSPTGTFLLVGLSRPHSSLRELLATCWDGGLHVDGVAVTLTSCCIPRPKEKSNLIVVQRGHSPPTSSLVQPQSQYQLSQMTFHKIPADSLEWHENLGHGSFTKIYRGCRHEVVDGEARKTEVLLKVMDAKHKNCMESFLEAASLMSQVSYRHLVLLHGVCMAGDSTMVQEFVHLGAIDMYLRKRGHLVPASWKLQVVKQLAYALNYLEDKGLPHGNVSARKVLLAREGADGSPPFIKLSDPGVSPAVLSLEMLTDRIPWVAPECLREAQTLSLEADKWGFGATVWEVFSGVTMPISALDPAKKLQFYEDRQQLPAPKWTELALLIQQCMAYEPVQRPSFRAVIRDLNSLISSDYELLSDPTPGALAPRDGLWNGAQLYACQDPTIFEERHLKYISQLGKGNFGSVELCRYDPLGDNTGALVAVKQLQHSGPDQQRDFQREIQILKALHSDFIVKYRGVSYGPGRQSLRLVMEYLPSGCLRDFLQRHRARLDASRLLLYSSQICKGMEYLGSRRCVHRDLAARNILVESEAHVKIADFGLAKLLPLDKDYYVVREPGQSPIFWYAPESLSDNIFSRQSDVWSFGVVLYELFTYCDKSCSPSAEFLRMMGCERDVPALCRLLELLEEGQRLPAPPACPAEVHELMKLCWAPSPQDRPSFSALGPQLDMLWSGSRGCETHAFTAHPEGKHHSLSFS
# Description: Inhibition of GST tagged recombinant human JAK3 expressed in baculovirus infection system by FRET assay
# [4] = target: Receptor tyrosine-protein kinase erbB-4 (Homo sapiens) (UniProt Q15303); assay: Inhibition of HER4 (unknown origin) at 0.5 uM relative to control
# U-937 [5] = assay: Induction of cell cycle arrest in human U-937 cells assessed as accumulation at G2/M phase at 300 nM measured after 24 hrs by propidium iodide staining based flow cytometric analysis (reference value: 21.41%); format: functional
# U-937 [6] = assay: Induction of cell cycle arrest in human U-937 cells assessed as accumulation at G2/M phase at 33 nM measured after 24 hrs by propidium iodide staining based flow cytometric analysis (reference value: 21.41%); format: functional
# [7] = target: Non-receptor tyrosine-protein kinase TYK2 (Homo sapiens, UniProt P29597); assay: Inhibition of human TYK2
# [8] = target: T1, Tyrosine-protein kinase JAK3; assay: Inhibition of human JAK3
# [9] = target: T2, Tyrosine-protein kinase JAK3 (Homo sapiens) (UniProt P52333); assay: Inhibition of human JAK3 at 0.5 uM relative to control
# T2 sequence (whole entry): T1 sequence (P52333 whole entry)
# [10] = target: T2, Tyrosine-protein kinase JAK3 (Homo sapiens); assay: Irreversible inhibition of JAK3 in human U-937 cells assessed as decrease in P-JAK3 phosphorylation at 200 uM pretreated for 8 hrs followed by compound washout by immunoblotting analysis; format: cell-based
# U-937 [11] = assay: Induction of cell cycle arrest in human U-937 cells assessed as accumulation at G0/G1 phase at 300 nM measured after 24 hrs by propidium iodide staining based flow cytometric analysis (reference value: 62.95%); format: functional
# U-937 [12] = assay: Induction of cell cycle arrest in human U-937 cells assessed as accumulation at S phase at 3.7 nM measured after 24 hrs by propidium iodide staining based flow cytometric analysis (reference value: 15.35%); format: functional
# [13] = target: Tyrosine-protein kinase Tec (Homo sapiens) (UniProt P42680); assay: Inhibition of TEC (unknown origin) at 0.5 uM relative to control
# [14] = target: Signal transducer and activator of transcription 3 (Homo sapiens) (UniProt P40763); assay: Inhibition of STAT3 activation in human U-937 cells assessed as decrease in P-STAT3 incubated for 0 to 24 hrs by Western blot analysis; format: cell-based; conditions: dose 200.0 µM, time 0-24 hrs, DDE = dose-dependent effect
# [15] = Clearance in 12 hr fasted SPF Sprague-Dawley rat at 5 mg/kg, iv upon 2 hrs fasting post-administration measured upto 24 hrs; format: ADME, organism-based; conditions: in vivo
# U-937 [16] = assay: Induction of cell cycle arrest in human U-937 cells assessed as downregulation of CDK4 at 0 to 300 nM measured after 24 hrs by western blot analysis; format: functional, cell-based; conditions: dose 0-300 nM
# Sequence of Receptor tyrosine-protein kinase erbB-4 (Homo sapiens) (Q15303 whole entry): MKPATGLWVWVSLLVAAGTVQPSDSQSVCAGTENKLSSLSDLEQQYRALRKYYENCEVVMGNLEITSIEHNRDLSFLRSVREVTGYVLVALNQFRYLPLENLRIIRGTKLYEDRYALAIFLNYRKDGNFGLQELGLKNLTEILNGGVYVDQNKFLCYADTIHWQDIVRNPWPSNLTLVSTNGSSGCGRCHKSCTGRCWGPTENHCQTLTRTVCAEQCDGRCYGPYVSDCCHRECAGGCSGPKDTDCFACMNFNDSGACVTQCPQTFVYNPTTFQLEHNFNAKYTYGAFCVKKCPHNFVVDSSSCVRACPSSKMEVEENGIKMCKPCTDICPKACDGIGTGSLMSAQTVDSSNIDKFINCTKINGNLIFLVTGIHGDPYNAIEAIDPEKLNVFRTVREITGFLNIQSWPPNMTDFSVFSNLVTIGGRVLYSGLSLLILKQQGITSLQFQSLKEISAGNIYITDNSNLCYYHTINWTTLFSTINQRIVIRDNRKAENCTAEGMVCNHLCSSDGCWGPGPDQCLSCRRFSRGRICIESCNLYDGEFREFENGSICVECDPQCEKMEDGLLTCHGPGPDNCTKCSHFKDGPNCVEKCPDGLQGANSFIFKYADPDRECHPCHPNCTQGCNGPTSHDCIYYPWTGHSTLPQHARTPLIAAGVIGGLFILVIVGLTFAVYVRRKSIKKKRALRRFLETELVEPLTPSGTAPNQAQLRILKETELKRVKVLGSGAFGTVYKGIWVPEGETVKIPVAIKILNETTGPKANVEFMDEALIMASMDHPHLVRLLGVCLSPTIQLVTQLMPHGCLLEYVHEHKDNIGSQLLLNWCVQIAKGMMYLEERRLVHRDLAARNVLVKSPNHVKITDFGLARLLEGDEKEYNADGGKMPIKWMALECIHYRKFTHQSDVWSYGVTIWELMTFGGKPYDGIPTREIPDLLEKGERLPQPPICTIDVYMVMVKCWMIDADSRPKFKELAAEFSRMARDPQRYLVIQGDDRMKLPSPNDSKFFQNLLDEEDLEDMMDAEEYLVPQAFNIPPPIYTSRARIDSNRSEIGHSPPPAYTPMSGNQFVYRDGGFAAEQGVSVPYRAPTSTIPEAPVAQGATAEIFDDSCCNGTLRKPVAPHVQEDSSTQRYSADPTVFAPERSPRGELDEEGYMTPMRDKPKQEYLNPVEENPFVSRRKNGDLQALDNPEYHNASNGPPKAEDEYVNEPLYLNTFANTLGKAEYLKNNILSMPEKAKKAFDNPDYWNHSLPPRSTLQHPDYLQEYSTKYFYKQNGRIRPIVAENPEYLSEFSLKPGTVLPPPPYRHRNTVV
# Sequence of Tyrosine-protein kinase Tec (Homo sapiens) (P42680 whole entry): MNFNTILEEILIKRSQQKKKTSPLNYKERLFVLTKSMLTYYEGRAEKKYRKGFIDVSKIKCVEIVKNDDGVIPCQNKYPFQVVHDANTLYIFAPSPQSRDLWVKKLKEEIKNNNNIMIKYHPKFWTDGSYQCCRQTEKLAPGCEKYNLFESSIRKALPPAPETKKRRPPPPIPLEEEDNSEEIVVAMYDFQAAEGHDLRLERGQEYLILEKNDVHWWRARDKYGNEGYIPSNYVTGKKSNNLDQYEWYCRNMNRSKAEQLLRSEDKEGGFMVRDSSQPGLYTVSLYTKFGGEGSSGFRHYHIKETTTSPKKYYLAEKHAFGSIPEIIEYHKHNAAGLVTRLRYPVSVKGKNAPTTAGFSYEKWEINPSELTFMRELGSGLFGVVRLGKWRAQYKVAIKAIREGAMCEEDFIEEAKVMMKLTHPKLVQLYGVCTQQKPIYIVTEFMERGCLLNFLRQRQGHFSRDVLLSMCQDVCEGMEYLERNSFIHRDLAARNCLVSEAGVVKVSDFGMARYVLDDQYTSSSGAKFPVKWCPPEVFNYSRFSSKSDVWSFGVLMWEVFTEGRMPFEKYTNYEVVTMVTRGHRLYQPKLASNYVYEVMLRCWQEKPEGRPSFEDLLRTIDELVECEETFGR
# Sequence of Non-receptor tyrosine-protein kinase TYK2 (P29597 whole entry): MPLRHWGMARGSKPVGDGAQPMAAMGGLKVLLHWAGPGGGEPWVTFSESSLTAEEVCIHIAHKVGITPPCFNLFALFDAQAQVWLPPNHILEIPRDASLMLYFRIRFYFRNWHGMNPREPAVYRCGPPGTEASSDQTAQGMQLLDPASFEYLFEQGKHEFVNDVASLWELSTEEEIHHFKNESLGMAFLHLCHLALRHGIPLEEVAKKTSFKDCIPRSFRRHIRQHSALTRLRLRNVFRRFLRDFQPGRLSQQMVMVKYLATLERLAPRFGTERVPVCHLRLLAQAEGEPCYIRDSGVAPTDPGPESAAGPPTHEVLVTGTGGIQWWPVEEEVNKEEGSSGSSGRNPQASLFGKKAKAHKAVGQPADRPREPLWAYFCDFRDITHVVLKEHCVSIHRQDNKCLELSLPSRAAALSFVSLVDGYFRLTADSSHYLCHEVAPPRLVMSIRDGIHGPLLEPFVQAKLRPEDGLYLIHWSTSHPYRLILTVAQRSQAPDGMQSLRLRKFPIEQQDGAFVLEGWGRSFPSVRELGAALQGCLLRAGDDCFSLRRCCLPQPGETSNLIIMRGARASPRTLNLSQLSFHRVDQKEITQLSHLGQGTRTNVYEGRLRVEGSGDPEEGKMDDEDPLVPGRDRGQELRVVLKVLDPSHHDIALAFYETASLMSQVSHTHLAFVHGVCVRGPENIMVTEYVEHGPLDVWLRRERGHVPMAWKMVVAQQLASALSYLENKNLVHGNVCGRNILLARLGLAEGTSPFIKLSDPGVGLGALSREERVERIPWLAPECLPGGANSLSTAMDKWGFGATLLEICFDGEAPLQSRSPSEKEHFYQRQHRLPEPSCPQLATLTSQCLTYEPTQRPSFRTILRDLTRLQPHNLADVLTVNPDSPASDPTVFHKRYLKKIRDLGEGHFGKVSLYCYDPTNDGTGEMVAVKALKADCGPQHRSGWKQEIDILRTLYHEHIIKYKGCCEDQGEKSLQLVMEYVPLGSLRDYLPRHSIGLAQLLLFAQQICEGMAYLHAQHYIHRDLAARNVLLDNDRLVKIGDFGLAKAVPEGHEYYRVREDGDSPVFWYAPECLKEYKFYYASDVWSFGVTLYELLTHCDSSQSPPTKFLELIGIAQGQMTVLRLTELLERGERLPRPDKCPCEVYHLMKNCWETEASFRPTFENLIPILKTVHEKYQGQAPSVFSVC
# Sequence of Signal transducer and activator of transcription 3 (Homo sapiens) (P40763 whole entry): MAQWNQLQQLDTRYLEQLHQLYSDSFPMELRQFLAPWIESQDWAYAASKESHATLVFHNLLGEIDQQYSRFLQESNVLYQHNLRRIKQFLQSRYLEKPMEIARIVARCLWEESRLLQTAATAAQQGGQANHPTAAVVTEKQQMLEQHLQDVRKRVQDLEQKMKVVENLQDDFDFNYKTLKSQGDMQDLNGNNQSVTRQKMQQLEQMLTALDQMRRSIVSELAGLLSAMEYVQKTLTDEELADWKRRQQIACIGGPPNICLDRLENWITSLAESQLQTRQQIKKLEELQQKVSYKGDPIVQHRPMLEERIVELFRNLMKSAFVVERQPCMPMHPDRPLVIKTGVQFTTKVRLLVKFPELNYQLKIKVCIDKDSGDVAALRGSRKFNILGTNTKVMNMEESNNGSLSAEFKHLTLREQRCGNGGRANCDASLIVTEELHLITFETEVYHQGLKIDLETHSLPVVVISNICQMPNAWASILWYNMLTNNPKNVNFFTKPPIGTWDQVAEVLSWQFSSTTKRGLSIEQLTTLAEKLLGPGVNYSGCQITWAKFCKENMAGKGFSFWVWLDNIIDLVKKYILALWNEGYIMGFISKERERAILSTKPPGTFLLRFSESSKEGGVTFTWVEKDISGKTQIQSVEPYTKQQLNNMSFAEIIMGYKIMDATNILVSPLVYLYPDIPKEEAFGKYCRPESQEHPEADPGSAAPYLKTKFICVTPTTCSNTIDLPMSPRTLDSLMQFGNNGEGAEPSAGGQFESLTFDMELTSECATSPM
structure (smiles),measurement,setting,value
C=CC(=O)Nc1cc(Nc2ncc(Cl)c(O[C@@H]3CO[C@H]4[C@@H]3OC[C@H]4OC)n2)ccc1N(C)CCN(C)C,Activity,U-937 [1],23.11%
same,AUC(0-inf),[2],537 ng·h/mL
same,IC50,[3],1.2 nM
same,inhibition,[4],106%
same,Activity,U-937 [5],15.33%
same,Activity,U-937 [6],21.31%
same,IC50,[7],365 nM
same,IC50,[8],8 nM
same,inhibition,[9],9%
same,inhibition,[10],Active
same,Activity,U-937 [11],76.88%
same,Activity,U-937 [12],15.23%
same,inhibition,[13],99%
same,inhibition,[14],Dde
same,CL,[15],155.22%
same,Activity,U-937 [16],Active
